Read-outs that look alike come from different tables or passages of the source.
Tests used:
[1] = biological target: Mcl-1 protein (UniProtKB primary accession number: Q07820) (Homo sapiens, UniProt Q07820); assay: Inhibition of Mcl-1 by fluorescence polarisation, Method 1; type: binding; details: fluorescence polarisation test; Method 2 values are underlined in the patent (underlining not visible here); read-out: IC50 (M) Mcl-1 FP
How it was run: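 Buffer of 10 mM HEPES pH 7.4 with 150 mM NaCl and 0.05% Tween 20 held 5 nM Mcl-1 and 1 nM fluorescein-tagged ligand (final). Compounds were tested as 11-point serial dilutions at 5% final DMSO, and binding was read by FP.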

[2] = tested on: H929 multiple myeloma tumour line; assay: In vitro cytotoxicity, Microculture Tetrazolium Assay; type: cell-based; details: H929 cells, 48 hours exposure, MTT, read-out: IC50 (μM) MTT H929
Protocol: The cytotoxicity studies were carried out on the H929 multiple myeloma tumour line.
The cells are distributed onto microplates and exposed to the test compounds for 48 hours.

Chain of Mcl-1 protein (Q07820 whole entry): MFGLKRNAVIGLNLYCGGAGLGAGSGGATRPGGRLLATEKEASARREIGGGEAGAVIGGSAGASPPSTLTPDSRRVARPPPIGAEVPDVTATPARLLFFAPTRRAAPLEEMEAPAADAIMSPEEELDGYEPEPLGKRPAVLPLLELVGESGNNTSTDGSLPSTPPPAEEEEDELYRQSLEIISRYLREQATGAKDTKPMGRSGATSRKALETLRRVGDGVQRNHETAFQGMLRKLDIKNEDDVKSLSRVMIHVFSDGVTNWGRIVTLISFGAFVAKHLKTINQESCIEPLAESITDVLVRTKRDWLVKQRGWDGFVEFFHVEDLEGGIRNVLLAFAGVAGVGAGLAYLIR

IC50 [1]	Compound	IC50 ([2]; Homo sapiens, NCI-H929, 48 h)	IC50 [2]
4.5e-09 M	Cc1c(-c2c(-c3ccco3)sc3ncnc(OC(Cc4ccccc4OCC4CC4)C(=O)O)c23)ccc(OCCN2CCN(C)CC2)c1Cl [Example 229, (2R)-2-{[(5Sa)-5-{3-chloro-2-methyl-4-[2-(4-methylpiperazin-1-yl)ethoxy]phenyl}-6-(furan-2-yl)thieno[2,3-d]pyrimidin-4-yl]oxy}-3-[2-(cyclopropylmethoxy)phenyl]propanoic acid]	0.134 µM	–
1.1e-08 M	Cc1c(-c2c(-c3ccco3)sc3ncnc(OC(Cc4ccccc4OCC4CCCC4)C(=O)O)c23)ccc(OCCN2CCN(C)CC2)c1Cl [Example 239, (2R)-2-{[(5Sa)-5-{3-chloro-2-methyl-4-[2-(4-methylpiperazin-1-yl)ethoxy]phenyl}-6-(furan-2-yl)thieno[2,3-d]pyrimidin-4-yl]oxy}-3-[2-(cyclopentylmethoxy)phenyl]propanoic acid]	0.55 µM	–
5.5e-09 M	Cc1c(-c2c(-c3ccco3)sc3ncnc(OC(Cc4ccccc4OCc4ccccn4)C(=O)O)c23)ccc(OCCN2CCN(C)CC2)c1Cl [Example 241, (2R)-2-{[(5Sa)-5-{3-chloro-2-methyl-4-[2-(4-methylpiperazin-1-yl)ethoxy]phenyl}-6-(furan-2-yl)thieno[2,3-d]pyrimidin-4-yl]oxy}-3-[2-(pyridin-2-ylmethoxy)phenyl]propanoic acid]	0.074 µM	–
7.3e-09 M	Cc1c(-c2c(-c3ccco3)sc3ncnc(OC(Cc4ccccc4OCc4cccnc4)C(=O)O)c23)ccc(OCCN2CCN(C)CC2)c1Cl [Example 242, (2R)-2-{[(5Sa)-5-{3-chloro-2-methyl-4-[2-(4-methylpiperazin-1-yl)ethoxy]phenyl}-6-(furan-2-yl)thieno[2,3-d]pyrimidin-4-yl]oxy}-3-[2-(pyridin-3-ylmethoxy)phenyl]propanoic acid]	0.09 µM	–
5.6e-09 M	Cc1c(-c2c(-c3ccco3)sc3ncnc(OC(Cc4ccccc4OCc4cccnn4)C(=O)O)c23)ccc(OCCN2CCN(C)CC2)c1Cl [Example 243, (2R)-2-{[(5Sa)-5-{3-chloro-2-methyl-4-[2-(4-methylpiperazin-1-yl)ethoxy]phenyl}-6-(furan-2-yl)thieno[2,3-d]pyrimidin-4-yl]oxy}-3-[2-(pyridazin-3-ylmethoxy)phenyl]propanoic acid]	0.211 µM	–
8.6e-09 M	Cc1c(-c2c(-c3ccco3)sc3ncnc(O[C@H](Cc4ccccc4OCc4ccco4)C(=O)O)c23)ccc(OCCN2CCN(C)CC2)c1Cl [Example 244, (2R)-2-{[(5Sa)-5-{3-chloro-2-methyl-4-[2-(4-methylpiperazin-1-yl)ethoxy]phenyl}-6-(furan-2-yl)thieno[2,3-d]pyrimidin-4-yl]oxy}-3-[2-(furan-2-ylmethoxy)phenyl]propanoic acid]	–	0.205 µM
5.8e-09 M	Cc1c(-c2c(-c3ccco3)sc3ncnc(OC(Cc4ccccc4OCc4cccs4)C(=O)O)c23)ccc(OCCN2CCN(C)CC2)c1Cl [Example 245, (2R)-2-{[(5Sa)-5-{3-chloro-2-methyl-4-[2-(4-methylpiperazin-1-yl)ethoxy]phenyl}-6-(furan-2-yl)thieno[2,3-d]pyrimidin-4-yl]oxy}-3-[2-(thiophen-2-ylmethoxy)phenyl]propanoic acid]	0.099 µM	–
9.1e-09 M	Cc1c(-c2c(-c3ccco3)sc3ncnc(OC(Cc4ccccc4OCc4ccn(C)n4)C(=O)O)c23)ccc(OCCN2CCN(C)CC2)c1Cl [Example 246, (2R)-2-{[(5Sa)-5-{3-chloro-2-methyl-4-[2-(4-methylpiperazin-1-yl)ethoxy]phenyl}-6-(furan-2-yl)thieno[2,3-d]pyrimidin-4-yl]oxy}-3-{2-[(1-methyl-1H-pyrazol-3-yl)methoxy]phenyl}propanoic acid]	0.324 µM	–

Further lines, the compound ahead of its results:

Compound	IC50 [1]	IC50 ([2]; Homo sapiens, NCI-H929, 48 h)	IC50 [2]
Cc1c(-c2c(-c3ccco3)sc3ncnc(OC(Cc4ccccc4OCc4cc(-c5ccccc5)nn4C)C(=O)O)c23)ccc(OCCN2CCN(C)CC2)c1Cl [Example 227, (2R)-2-{[(5Sa)-5-{3-chloro-2-methyl-4-[2-(4-methylpiperazin-1-yl)ethoxy]phenyl}-6-(furan-2-yl)thieno[2,3-d]pyrimidin-4-yl]oxy}-3-{2-[(1-methyl-3-phenyl-1H-pyrazol-5-yl)methoxy]phenyl}propanoic acid]	2e-08 M	0.192 µM	–
Cc1c(-c2c(-c3ccco3)sc3ncnc(OC(Cc4ccccc4OCc4cc(-c5ccco5)nn4C)C(=O)O)c23)ccc(OCCN2CCN(C)CC2)c1Cl [Example 228, (2R)-2-{[(5Sa)-5-{3-chloro-2-methyl-4-[2-(4-methylpiperazin-1-yl)ethoxy]phenyl}-6-(furan-2-yl)thieno[2,3-d]pyrimidin-4-yl]oxy}-3-(2-{[3-(furan-2-yl)-1-methyl-1H-pyrazol-5-yl]methoxy}phenyl)propanoic acid]	2.2e-08 M	0.166 µM	–
Cc1c(-c2c(-c3ccco3)sc3ncnc(OC(Cc4ccccc4OCc4cc5ccccc5cn4)C(=O)O)c23)ccc(OCCN2CCN(C)CC2)c1Cl [Example 230, (2R)-2-{[(5Sa)-5-{3-chloro-2-methyl-4-[2-(4-methylpiperazin-1-yl)ethoxy]phenyl}-6-(furan-2-yl)thieno[2,3-d]pyrimidin-4-yl]oxy}-3-[2-(isoquinolin-3-ylmethoxy)phenyl]propanoic acid]	1.2e-08 M	0.312 µM	–
Cc1c(-c2c(-c3ccco3)sc3ncnc(OC(Cc4ccccc4OCc4ccc(Cl)cn4)C(=O)O)c23)ccc(OCCN2CCN(C)CC2)c1Cl [Example 231, (2R)-2-{[(5Sa)-5-{3-chloro-2-methyl-4-[2-(4-methylpiperazin-1-yl)ethoxy]phenyl}-6-(furan-2-yl)thieno[2,3-d]pyrimidin-4-yl]oxy}-3-{2-[(5-chloropyridin-2-yl)methoxy]phenyl}propanoic acid]	1e-08 M	0.116 µM	–
Cc1c(-c2c(-c3ccco3)sc3ncnc(OC(Cc4ccccc4OCc4ccc(F)cn4)C(=O)O)c23)ccc(OCCN2CCN(C)CC2)c1Cl [Example 232, (2R)-2-{[(5Sa)-5-{3-chloro-2-methyl-4-[2-(4-methylpiperazin-1-yl)ethoxy]phenyl}-6-(furan-2-yl)thieno[2,3-d]pyrimidin-4-yl]oxy}-3-{2-[(5-fluoropyridin-2-yl)methoxy]phenyl}propanoic acid]	9e-09 M	0.046 µM	–
COc1ccc(COc2ccccc2CC(Oc2ncnc3sc(-c4ccco4)c(-c4ccc(OCCN5CCN(C)CC5)c(Cl)c4C)c23)C(=O)O)nc1 [Example 233, (2R)-2-{[(5Sa)-5-{3-chloro-2-methyl-4-[2-(4-methylpiperazin-1-yl)ethoxy]phenyl}-6-(furan-2-yl)thieno[2,3-d]pyrimidin-4-yl]oxy}-3-{2-[(5-methoxypyridin-2-yl)methoxy]phenyl}propanoic acid]	3.4e-09 M	0.099 µM	–
Cc1c(-c2c(-c3ccco3)sc3ncnc(OC(Cc4ccccc4OCc4ccc5ccccc5n4)C(=O)O)c23)ccc(OCCN2CCN(C)CC2)c1Cl [Example 234, (2R)-2-{[(5Sa)-5-{3-chloro-2-methyl-4-[2-(4-methylpiperazin-1-yl)ethoxy]phenyl}-6-(furan-2-yl)thieno[2,3-d]pyrimidin-4-yl]oxy}-3-[2-(quinolin-2-ylmethoxy)phenyl]propanoic acid]	1.1e-08 M	0.135 µM	–
Cc1cccc(COc2ccccc2CC(Oc2ncnc3sc(-c4ccco4)c(-c4ccc(OCCN5CCN(C)CC5)c(Cl)c4C)c23)C(=O)O)n1 [Example 235, (2R)-2-{[(5Sa)-5-{3-chloro-2-methyl-4-[2-(4-methylpiperazin-1-yl)ethoxy]phenyl}-6-(furan-2-yl)thieno[2,3-d]pyrimidin-4-yl]oxy}-3-{2-[(6-methylpyridin-2-yl)methoxy]phenyl}propanoic acid]	5.1e-09 M	0.098 µM	–
Cc1c(-c2c(-c3ccco3)sc3ncnc(OC(Cc4ccccc4OCc4cccc(Cl)n4)C(=O)O)c23)ccc(OCCN2CCN(C)CC2)c1Cl [Example 236, (2R)-2-{[(5Sa)-5-{3-chloro-2-methyl-4-[2-(4-methylpiperazin-1-yl)ethoxy]phenyl}-6-(furan-2-yl)thieno[2,3-d]pyrimidin-4-yl]oxy}-3-{2-[(6-chloropyridin-2-yl)methoxy]phenyl}propanoic acid]	7.4e-09 M	0.137 µM	–
Cc1c(-c2c(-c3ccco3)sc3ncnc(OC(Cc4ccccc4OCc4cccc(N5CCCC5)n4)C(=O)O)c23)ccc(OCCN2CCN(C)CC2)c1Cl [Example 237, (2R)-2-{[(5Sa)-5-{3-chloro-2-methyl-4-[2-(4-methylpiperazin-1-yl)ethoxy]phenyl}-6-(furan-2-yl)thieno[2,3-d]pyrimidin-4-yl]oxy}-3-(2-{[6-(pyrrolidin-1-yl)pyridin-2-yl]methoxy}phenyl)propanoic acid]	1.5e-08 M	0.186 µM	–
COc1cccc(COc2ccccc2CC(Oc2ncnc3sc(-c4ccco4)c(-c4ccc(OCCN5CCN(C)CC5)c(Cl)c4C)c23)C(=O)O)n1 [Example 238, (2R)-2-{[(5Sa)-5-{3-chloro-2-methyl-4-[2-(4-methylpiperazin-1-yl)ethoxy]phenyl}-6-(furan-2-yl)thieno[2,3-d]pyrimidin-4-yl]oxy}-3-{2-[(6-methoxypyridin-2-yl)methoxy]phenyl}propanoic acid]	5.9e-09 M	0.077 µM	–
Cc1c(-c2c(-c3ccco3)sc3ncnc(OC(Cc4ccccc4OCc4ccccc4)C(=O)O)c23)ccc(OCCN2CCN(C)CC2)c1Cl [Example 240, (2R)-3-[2-(benzyloxy)phenyl]-2-{[(5Sa)-5-{3-chloro-2-methyl-4-[2-(4-methylpiperazin-1-yl)ethoxy]phenyl}-6-(furan-2-yl)thieno[2,3-d]pyrimidin-4-yl]oxy}propanoic acid]	7.2e-09 M	0.225 µM	–

Reference: US9670227B2, “Thienopyrimidine derivatives, a process for their preparation and pharmaceutical compositions containing them” (LES LABORATOIRES SERVIER, priority 2013, dated 2017)
